Patent publication US10793542B2, “Hetroarylamine compounds for modulating the hedgehog pathway and preparing method and uses thereof” (DEVELOPMENT CENTER FOR BIOTECHNOLOGY, priority 2016, dated 2020)
pIC50: −log10 of the molar value.

What was measured:
Type in all cases: cell-based
Smo D473H mutant = molecular target: T1, Smo D473H mutant (Homo sapiens, UniProt Q99835, D473H); test: Reporter assay of C3H10T1/2-Gli-Luc cells transfected with Smo D473H mutant, without SAG; settings: C3H10T1/2 cells transfected with pLPCX-SMO-D473H, no SAG, 48 hr; read-out: Inhibition of C3H10T1/2-Gli-Luc-Smo-D473H [IC50
T1 construct: expressed in transfected cells; host or cells: C3H10T1/2 cells (ATCC CCL-226), transient transfection with pLPCX-SMO-D473H
T1 sequence (Q99835 28-787 D473H): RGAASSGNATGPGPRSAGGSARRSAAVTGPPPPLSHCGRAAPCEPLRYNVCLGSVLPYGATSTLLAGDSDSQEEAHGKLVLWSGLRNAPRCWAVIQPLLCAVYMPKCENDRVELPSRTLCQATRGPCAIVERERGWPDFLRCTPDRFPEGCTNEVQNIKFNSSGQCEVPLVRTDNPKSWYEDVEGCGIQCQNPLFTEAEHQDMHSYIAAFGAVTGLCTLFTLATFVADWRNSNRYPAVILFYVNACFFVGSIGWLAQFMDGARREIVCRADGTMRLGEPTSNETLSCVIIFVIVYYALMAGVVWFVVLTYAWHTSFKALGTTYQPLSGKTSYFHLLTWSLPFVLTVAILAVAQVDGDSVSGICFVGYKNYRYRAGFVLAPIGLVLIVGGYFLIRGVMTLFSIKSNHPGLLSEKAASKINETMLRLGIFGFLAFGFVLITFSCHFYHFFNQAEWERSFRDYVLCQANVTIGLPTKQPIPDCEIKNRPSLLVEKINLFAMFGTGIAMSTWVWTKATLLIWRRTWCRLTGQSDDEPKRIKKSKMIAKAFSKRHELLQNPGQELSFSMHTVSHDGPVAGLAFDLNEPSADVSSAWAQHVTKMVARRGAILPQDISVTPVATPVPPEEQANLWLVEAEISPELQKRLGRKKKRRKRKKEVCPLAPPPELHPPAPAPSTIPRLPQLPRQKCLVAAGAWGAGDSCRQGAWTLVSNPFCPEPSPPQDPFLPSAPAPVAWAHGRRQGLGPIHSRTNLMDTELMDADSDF
Method: (§1) A transient transfection system with a Smo wild type or a Smo D473H mutant was also used for compound screening. For the SMO inhibition experiments, cells were transfected with an additional 500 ng/well of wild-type or D473H-mutant type SMO construct (pLPCX-SMO or pLPCX-SMO-D473H). After 24 h, transfected cells were collected by trypsin treatment and re-plated in 96-well plates in an RPMI medium containing 0.5% FBS with a density of 1.5×10^4 cells/well. Compounds were dissolved in DMSO with serial dilutions and were then added to the assay plate. The assay plates were incubated at 37° C. for 48 hr.
(§2) Firefly luciferase and Renilla luciferase activity was determined using the Dual-Glo Luciferase reporter assay system (Promega) with a Victor3 plate reader (PerkinElmer Life Sciences). Firefly luciferase readings were normalized to Renilla luciferase to correct for transfection efficiency. Luminance reading for the C3H10T1/2-Gli-Luc assay was normalized based on DMSO control with SAG stimulation (100% pathway activity) and without SAG stimulation (0% pathway activity). IC50 values, defined as the inflection point of the logistic curve, were determined by nonlinear regression using the Prism 5 software (GraphPad).
(§3) The reporter assay of C3H10T1/2-Gli-Luc cells transfected with a wild-type, D473H mutant Smo mutant was carried out with the same protocol but without SAG stimulation. Luminance reading for the SMO inhibition experiments assay was normalized based on DMSO control (100% of the pathway activity) and a known Smo antagonist (ALLO-2 at 10 μM, 0% of the pathway activity).

[1] = tested on: hedgehog pathway (pGL3-7xGli-Luciferase reporter in C3H10T1/2 cells); test: Transient transfection of C3H10T1/2 and Gli-Luc reporter assay with SAG stimulation; settings: Mus musculus, C3H 10T1/2, SAG 20 nM, 48 hr, read-out: Inhibition of Gli-Luc expression [IC50
Method: A cell-based screen for inhibitors of the hedgehog pathway was performed using a transient transfection system in C3H10T1/2 cells with pGL3-7xGli-Luciferase reporter plasmids C3H10T1/2 cells (ATCC, cat.#CCL-226) were seeded into 6-well plates at 8×10^4 cells/well in a BME medium containing 10% heat-inactivated FBS. Cells were transfected the next morning with 500 ng/well pGL3-7xGli-Luciferase reporter plasmids and 100 ng/well pRL-TK Renilla luciferase reporter plasmids (Promega)using GeneJuice transfection reagent (Novagene). After 24 h, transfected cells were collected by trypsin treatment and re-plated in 96-well plates in an RPMI medium containing 0.5% FBS with a density of 1.5×10^4 cells/well. Compounds were dissolved in DMSO with serial dilutions and were then added to the assay plate. SAG (Hh-Ag 1.3) (Santa Cruz) was added to the assay plated for a final concentration 20 nM. The assay plates were incubated at 37° C. for 48 hr.
as §2

Smo wild type = molecular target: T2, Smo wild type (Homo sapiens, UniProt Q99835); test: Reporter assay of C3H10T1/2-Gli-Luc cells transfected with wild-type Smo, without SAG; settings: C3H10T1/2 cells transfected with pLPCX-SMO, no SAG, 48 hr; read-out: Inhibition of C3H10T1/2-Gli-Luc-Smo-WT [IC50
T2 construct: expressed in transfected cells; host or cells: C3H10T1/2 cells (ATCC CCL-226), transient transfection with pLPCX-SMO
T2 sequence (Q99835 28-787): as the sequence (Q99835 28-787 D473H) above, with H446D counted along it
Method: as §1, §2, §3

Row | Structure (SMILES) | pIC50 (Smo D473H mutant) | pIC50 [1] | pIC50 (Smo wild type)
1 | CCOc1cnc(Nc2ccc(C(=O)Nc3cc(CN4CCN(C)CC4)ccc3C)cc2)nc1-c1ccc(F)cc1 [Compound 76, 4-[5-Ethoxy-4-(4-fluoro-phenyl)-pyrimidin-2-ylamino]-N-[2-methyl-5-(4-methyl-piperazin-1-ylmethyl)-phenyl]-benzamide] | > 7.00 | > 7.00 | > 7.00
2 | CSc1cnc(Nc2ccc(C(=O)Nc3c(C)cccc3C)cc2)nc1-c1ccc(C#N)cc1 [Compound 2, 4-[4-(4-Cyano-phenyl)-5-methylsulfanyl-pyrimidin-2-ylamino]-N-(2,6-dimethyl-phenyl)-benzamide] | 6.00 to 7.00 | 6.00 to 7.00 | 6.00 to 7.00
3 | CSc1cnc(Nc2ccc(C(=O)Nc3cccc(CN4CCOCC4)c3)cc2)nc1-c1ccc(C(F)(F)F)nc1 [Compound 69, 4-[5-Methylsulfanyl-4-(6-trifluoromethyl-pyridin-3-yl)-pyrimidin-2-ylamino]-N-(3-morpholin-4-ylmethyl-phenyl)-benzamide] | 6.00 to 7.00 | > 7.00 | > 7.00
4 | CSc1cnc(Nc2ccc(C(=O)Nc3cc(CN4CCOCC4)ccc3C)cc2F)nc1-c1cnn(C)c1 [Compound 45, 3-Fluoro-N-(2-methyl-5-morpholin-4-ylmethyl-phenyl)-4-[4-(1-methyl-1H-pyrazol-4-yl)-5-methylsulfanyl-pyrimidin-2-ylamino]-benzamide] | > 7.00 | > 7.00 | > 7.00
5 | COc1cnc(Nc2ccc(C(=O)Nc3cc(CN4CCOCC4)ccc3C)cc2)nc1-c1ccc(OC(F)(F)F)cc1 [Compound 38, 4-[5-Methoxy-4-(4-trifluoromethoxy-phenyl)-pyrimidin-2-ylamino]-N-(2-methyl-5-morpholin-4-ylmethyl-phenyl)-benzamide] | > 7.00 | > 7.00 | > 7.00
6 | COc1cccc(C)c1NC(=O)c1ccc(Nc2ncc(SC)c(-c3cccnc3F)n2)cc1 [Compound 14, 4-[4-(2-Fluoro-pyridin-3-yl)-5-methylsulfanyl-pyrimidin-2-ylamino]-N-(2-methoxy-6-methyl-phenyl)-benzamide] | 6.00 to 7.00 | > 7.00 | 6.00 to 7.00
7 | CSc1cnc(Nc2ccc(C(=O)Nc3cc(CN4CCN(C)CC4)ccc3C)cc2)cc1-c1ccc(OC(F)(F)F)cc1 [Compound 82, N-[2-Methyl-5-(4-methyl-piperazin-1-ylmethyl)-phenyl]-4-[5-methylsulfanyl-4-(4-trifluoromethoxy-phenyl)-pyridin-2-ylamino]-benzamide] | > 7.00 | > 7.00 | > 7.00
8 | COc1cnc(Nc2ccc(C(=O)Nc3cc(CN4CCNCC4)ccc3C)cc2F)nc1-c1ccc(F)cc1 [Compound 80, 3-Fluoro-4-[4-(4-fluoro-phenyl)-5-methoxy-pyrimidin-2-ylamino]-N-(2-methyl-5-piperazin-1-ylmethyl-phenyl)-benzamide] | 6.00 to 7.00 | > 7.00 | 6.00 to 7.00
9 | CSc1cnc(Nc2ccc(C(=O)Nc3cc(CN4CCOCC4)ccc3F)cc2)nc1-c1ccc(F)cc1 [Compound 71, N-(2-Fluoro-5-morpholin-4-ylmethyl-phenyl)-4-[4-(4-fluoro-phenyl)-5-methylsulfanyl-pyrimidin-2-ylamino]-benzamide] | > 7.00 | > 7.00 | > 7.00
10 | COc1ccc(CN2CCOCC2)cc1NC(=O)c1ccc(Nc2ncc(SC)c(-c3ccc(OC(F)(F)F)cc3)n2)c(F)c1 [Compound 58, 3-Fluoro-N-(2-methoxy-5-morpholin-4-ylmethyl-phenyl)-4-[5-methylsulfanyl-4-(4-trifluoromethoxy-phenyl)-pyrimidin-2-ylamino]-benzamide] | 6.00 to 7.00 | > 7.00 | > 7.00
11 | CSc1cnc(Nc2ccc(C(=O)Nc3ccccc3C)cc2)nc1-c1cccnc1F [Compound 11, 4-[4-(2-Fluoro-pyridin-3-yl)-5-methylsulfanyl-pyrimidin-2-ylamino]-N-o-tolyl-benzamide] | 6.00 to 7.00 | 6.00 to 7.00 | 6.00 to 7.00
12 | CSc1cnc(Nc2ccc(C(=O)Nc3cc(CN4CCCCC4)ccc3C)cc2)nc1-c1ccc(F)cc1 [Compound 48, 4-[4-(4-Fluoro-phenyl)-5-methylsulfanyl-pyrimidin-2-ylamino]-N-(2-methyl-5-piperidin-1-ylmethyl-phenyl)-benzamide] | 6.00 to 7.00 | > 7.00 | > 7.00
13 | CSc1cnc(Nc2ccc(C(=O)Nc3cc(CN4CCOCC4)ccc3C)cc2)nc1-c1ccc(F)cc1 [Compound 30, 4-[4-(4-Fluoro-phenyl)-5-methylsulfanyl-pyrimidin-2-ylamino]-N-(2-methyl-5-morpholin-4-ylmethyl-phenyl)-benzamide] | 6.00 to 7.00 | > 7.00 | > 7.00
14 | CSc1cnc(Nc2ccc(C(=O)Nc3cc(CN4CCOCC4)ccc3C)cc2)nc1-c1ccc(C(F)(F)F)nc1 [Compound 68, N-(2-Methyl-5-morpholin-4-ylmethyl-phenyl)-4-[5-methylsulfanyl-4-(6-trifluoromethyl-pyridin-3-yl)-pyrimidin-2-ylamino]-benzamide] | 6.00 to 7.00 | 6.00 to 7.00 | > 7.00
15 | COc1cnc(Nc2ccc(C(=O)Nc3cc(CN4CCOCC4)ccc3C)cc2F)nc1-c1ccc(F)cc1 [Compound 60, 3-Fluoro-4-[4-(4-fluoro-phenyl)-5-methoxy-pyrimidin-2-ylamino]-N-(2-methyl-5-morpholin-4-ylmethyl-phenyl)-benzamide] | > 7.00 | > 7.00 | > 7.00
16 | CSc1cnc(Nc2ccc(C(=O)Nc3cc(CN(C)C)ccc3C)cc2)cc1-c1ccc(OC(F)(F)F)cc1 [Compound 83, N-(5-Dimethylaminomethyl-2-methyl-phenyl)-4-[5-methylsulfanyl-4-(4-trifluoromethoxy-phenyl)-pyridin-2-ylamino]-benzamide] | > 7.00 | > 7.00 | > 7.00
17 | CSc1cnc(Nc2ccc(C(=O)Nc3ccccc3C)cc2F)nc1-c1cccnc1F [Compound 16, 3-Fluoro-4-[4-(2-fluoro-pyridin-3-yl)-5-methylsulfanyl-pyrimidin-2-ylamino]-N-o-tolyl-benzamide] | 6.00 to 7.00 | 6.00 to 7.00 | 6.00 to 7.00
18 | CSc1cnc(Nc2ccc(C(=O)Nc3cc(CN4CCOCC4)ccc3C)cc2)nc1-c1ccncc1 [Compound 26, N-(2-Methyl-5-morpholin-4-ylmethyl-phenyl)-4-(5-methylsulfanyl-4-pyridin-4-yl-pyrimidin-2-ylamino)-benzamide] | 6.00 to 7.00 | > 7.00 | > 7.00
19 | CSc1cnc(Nc2ccc(C(=O)Nc3cc(CN(C)C)ccc3C)cc2)nc1-c1ccc(C(F)(F)F)cc1 [Compound 32, N-(5-Dimethylaminomethyl-2-methyl-phenyl)-4-[5-methylsulfanyl-4-(4-trifluoromethyl-phenyl)-pyrimidin-2-ylamino]-benzamide] | 6.00 to 7.00 | 6.00 to 7.00 | 6.00 to 7.00
20 | COc1cnc(Nc2ccc(C(=O)Nc3cc(CN4CCNCC4)ccc3C)cc2)nc1-c1ccc(F)cc1 [Compound 79, 4-[4-(4-Fluoro-phenyl)-5-methoxy-pyrimidin-2-ylamino]-N-(2-methyl-5-piperazin-1-ylmethyl-phenyl)-benzamide] | 6.00 to 7.00 | > 7.00 | 6.00 to 7.00
21 | CSc1cnc(Nc2ccc(C(=O)Nc3cc(CN4CCOCC4)ccc3C)cn2)nc1-c1ccc(OC(F)(F)F)cc1 [Compound 63, N-(2-Methyl-5-morpholin-4-ylmethyl-phenyl)-6-[5-methylsulfanyl-4-(4-trifluoromethoxy-phenyl)-pyrimidin-2-ylamino]-nicotinamide] | > 7.00 | > 7.00 | > 7.00
